From patent US20220008397A1, “PHARMACEUTICAL COMPOSITION FOR THE TREATMENT OF OCULAR NEOVASCULARISATION” (NOVALIQ GMBH, priority 2019, published 2022)

Columns and labels:
[1] = Tamura et al., 2002; cited from earlier work
[2] = test system: BMDMs (bone marrow derived macrophages); assay: In vitro study using BMDMs (culture of bone marrow derived macrophages), expression of angiogenic growth factors; type: cell-based
choroidal angiogenesis = assay: In vitro model of choroidal angiogenesis; type: cell-based; settings: 20 ng/mL and 4 ng/mL
Experimental: The antiangiogenic effect of Tacrolimus was also tested in an in vitro model of choroidal angiogenesis and compared with dexamethasone.

For `C=CC[C@@H]1/C=C(\C)C[C@H](C)C[C@H](OC)[C@H]2O[C@@](O)(C(=O)C(=O)N3CCCC[C@H]3C(=O)O[C@H](/C(C)=C/[C@@H]3CC[C@@H](O)[C@H](OC)C3)[C@H](C)[C@@H](O)CC1=O)[C@H](C)C[C@@H]2OC` [Tacrolimus], the “Ability to penetrate tissue barrier upon topical administration” value [1] is listed as “poor ability to penetrate tissue barrier”, the “Expression of pro-angiogenic growth factors” value [2] is listed as “can reduce the expression of pro-angiogenic growth factors” and the “Dose dependence of the suppression of choroidal angiogenesis in vitro” value (choroidal angiogenesis; 100 ng/mL) is listed as “not dose-dependent”. The “Effect on choroidal angiogenesis in vitro” value (choroidal angiogenesis; tacrolimus at 100 ng/mL) was “suppressed choroidal angiogenesis”.
